Source: patent publication US6359152B2, “18-substituted-19-nor-vitamin D compounds” (Wisconsin Alumni Research Foundation, priority 1997, dated 2002)

What was measured:
[1] = tested on: Intestinal Calcium Transport; assay: Intestinal calcium transport (everted sac) in vitamin D-deficient rats after chronic dosing; assay type: in vivo; conditions: for Intestinal Calcium Transport (S/M): intraperitoneal, vitamin D-deficient low calcium diet rats, mean ± SEM, 24 h after last dose; for intestinal calcium transport activity (in words): versus control, given for 7 days in a chronic mode
Method: (§1) Male weanling rats were obtained from Sprague Dawley Co. (Indianapolis, Ind.) and fed a 0.47% calcium, 0.3% phosphorus vitamin D-deficient diet for 1 week and then given the same diet containing 0.02% calcium, 0.3% phosphorus for 3 weeks. During the last week they were given the indicated dose of compound by intraperitoneal injection in 0.1 ml 95% propylene glycol and 5% ethanol each day for 7 days. The control animals received only the 0.1 ml of 95% propylene glycol, 5% ethanol. Twenty-four hours after the last dose, the rats were sacrificed and intestinal calcium transport was determined by everted sac technique as previously described and serum calcium determined by atomic absorption spectrometry on a model 3110 Perkin Elmer instrument (Norwalk, Conn.). There were 5 rats per group and the values represent mean ±SEM.

[2] = tested on: Serum Calcium (Bone Calcium Mobilization); assay: Serum calcium (bone calcium mobilization) in vitamin D-deficient rats after chronic dosing; assay type: in vivo; conditions: for Serum Calcium (mg/100 ml): intraperitoneal, vitamin D-deficient low calcium diet rats, mean ± SEM, 24 h after last dose; for bone calcium mobilizing activity (in words): versus control, given for 7 days in a chronic mode
Method: as §1

[3] = target: T1, porcine intestinal vitamin D receptor (Sus scrofa, UniProt A3RGC1); assay: Competitive binding of [3H]-1,25-(OH)2-D3 to the porcine intestinal vitamin D receptor; conditions: at low concentrations; FIG. 1
T1 sequence (A3RGC1 1-427): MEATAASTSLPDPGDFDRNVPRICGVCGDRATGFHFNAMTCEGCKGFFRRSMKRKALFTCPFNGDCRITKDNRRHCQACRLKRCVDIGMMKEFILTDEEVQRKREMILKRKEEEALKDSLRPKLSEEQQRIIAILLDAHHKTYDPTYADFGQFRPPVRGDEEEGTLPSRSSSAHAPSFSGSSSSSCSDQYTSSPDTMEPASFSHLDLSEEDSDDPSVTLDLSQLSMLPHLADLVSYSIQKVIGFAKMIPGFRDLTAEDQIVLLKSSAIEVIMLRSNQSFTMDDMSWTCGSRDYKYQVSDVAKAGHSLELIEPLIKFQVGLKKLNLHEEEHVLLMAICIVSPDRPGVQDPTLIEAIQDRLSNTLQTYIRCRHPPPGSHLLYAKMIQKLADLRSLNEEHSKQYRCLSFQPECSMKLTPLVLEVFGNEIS
Method: Competitve binding of the analogs to the porcine intestinal receptor was carried out by the method described by Dame et al (Biochemistry 25, 4523-4534, 1986).

HL-60 cells = conditions: compared to 1,25-(OH)2D3; FIG. 2
Method: The differentiation of HL-60 promyelocytic into monocytes was determined as described by Ostrem et al (J. Biol. Chem. 262, 14164-14171, 1987).

Structure (SMILES): C[C@H](CCCC(C)(C)O)[C@H]1CC[C@H]2/C(=C/C=C3C[C@@H](O)C[C@H](O)C3)CCC[C@]12C [19-Nor-1,25-(OH)2D3, 1α,25-dihydroxy-19nor-vitamin D3, reference compound]
- Intestinal Calcium Transport (S/M) ([1]; 260 pmol/day for 7 days): 4.02 ± 0.50 S/M
- Serum Calcium (mg/100 ml) ([2]; 260 pmol/day for 7 days): 3.83 ± 0.20 mg/100 ml

Structure (SMILES): CC[C@]12CCC/C(=C\C=C3C[C@@H](O)C[C@H](O)C3)[C@@H]1CC[C@@H]2[C@H](C)CCCC(C)(C)O [13-Ethyl-18,19-Dinor-1,25-(OH)2D3, 1α,25-dihydroxy-13-ethyl-18,19-dinor-vitamin D3]
- Intestinal Calcium Transport (S/M) ([1]; 260 pmol/day for 7 days): 4.30 ± 0.20 S/M
- Intestinal Calcium Transport (S/M) ([1]; 500 pmol/day for 7 days): 4.40 ± 0.27 S/M
- intestinal calcium transport activity (in words) [1]: no significant change versus control
- binding activity compared to 1,25-(OH)2D3 [3]: approximately twice
- activity in inducing differentiation of HL-60 cells to the monocyte (HL-60 cells): activity similar to 1,25-(OH)2D3
- Serum Calcium (mg/100 ml) ([2]; 260 pmol/day for 7 days): 4.39 ± 0.53 mg/100 ml
- Serum Calcium (mg/100 ml) ([2]; 500 pmol/day for 7 days): 3.99 ± 0.33 mg/100 ml
- bone calcium mobilizing activity (in words) [2]: no significant change versus control

Structure (SMILES): C=CC12CCC/C(=C\C=C3C[C@@H](O)C[C@H](O)C3)[C@@H]1CC[C@@H]2[C@H](C)CCCC(C)(C)O (stereo partly drawn) [13-Vinyl-18,19-Dinor-1,25-(OH)2D3, 1α,25-dihydroxy-13-vinyl-18,19-dinor-vitamin D3]
- Intestinal Calcium Transport (S/M) ([1]; 260 pmol/day for 7 days): 4.02 ± 0.24 S/M
- Intestinal Calcium Transport (S/M) ([1]; 500 pmol/day for 7 days): 4.25 ± 0.55 S/M
- intestinal calcium transport activity (in words) [1]: no significant change versus control
- binding activity compared to 1,25-(OH)2D3 [3]: approximately twice
- activity in inducing differentiation of HL-60 cells to the monocyte (HL-60 cells): activity similar to 1,25-(OH)2D3
- Serum Calcium (mg/100 ml) ([2]; 260 pmol/day for 7 days): 3.32 ± 0.21 mg/100 ml
- Serum Calcium (mg/100 ml) ([2]; 500 pmol/day for 7 days): 3.52 ± 0.12 mg/100 ml
- bone calcium mobilizing activity (in words) [2]: no significant change versus control
